{"source": "patent US20250281391A1", "about": "“EFFERVESCENT COMPOSITION AND METHOD FOR DETERMINING BITTERNESS PERCEPTION” (BAYER HEALTHCARE LLC, priority 2024, published 2025)", "assay": "Electric potential experiment (degree of carbonation, carbon dioxide electrode) as surrogate of bitterness perception", "format": "physicochemical", "conditions": "Sol. Nos. 26-28, acetaminophen as the API, 100 mL deionized water", "description": "Formulations comprising the effervescent combination (sodium bicarbonate and citric acid) and molecules/compositions that impart a bitter taste (such as APIs or compositions comprising APIs) can be prepared according to Tables 1-5 below. Exemplary formulations according to the disclosure were made according to the following general procedure. 100 mL of deionized water from MILLI-Q® Q-POD® water purifier (having about 1.9 ppb total organic content) was weighed out in an appropriately sized glass beaker. The ingredients mentioned in Tables 1-5 below were weighed out and added to the glass beaker containing deionized water, and then the mixture was stirred for 15 minutes until the blend is homogenous. Each ingredient was sieved through a mesh 18 strainer ([…] strainer size means particles won't be greater than 0.0394 inches (1000 microns or 1 mm) in diameter) to remove clumps before weighing. The METTLER TOLEDO® XP6035S was used to measure ingredient weight, but any suitable weighing balance may be used.\nVarious combinations of bitter tasting molecules/compositions (e.g., APIs or compositions comprising APIs) along with the effervescent combination were prepared as solutions (see Sol. Nos. 1-36 in FIG. 1) per the general procedure described in Example 1. For the electric potential experiment, after the solutions were stirred, a carbon dioxide electrode (which measures the degree of carbonation) was dipped in the glass beaker to assess degree of carbonation (unit is electric potential in mV). The THERMO SCIENTIFIC™ ORION™ VSTAR PRO™ 9502BNWP carbon dioxide electrode was used to measure electrical potential (mV). The METTLER TOLEDO SEVENCOMPACT™ PH meter PD-470 was used to measure the pH. […] The carbon dioxide electrode was rinsed with deionized water and cleaned with a lint free tissue in between samples.", "data": [{"compound": "CC(=O)Nc1ccc(O)cc1", "note": "[acetaminophen]", "values": [{"measurement": "average electric potential", "setting": "including 0.300 g of the effervescent combination (low end)", "value": 22.24, "unit": "mV"}, {"measurement": "average electric potential", "setting": "including 0.400 g of the effervescent combination", "value": 30.4, "unit": "mV"}, {"measurement": "average electric potential", "setting": "including 0.500 g (high end) of the effervescent combination", "value": 35.67, "unit": "mV"}]}]}
